Test results published in article PMC9515472, “The AhR ligand phthiocol and vitamin K analogs as Pseudomonas aeruginosa quorum sensing inhibitors” (Frontiers in Microbiology, 2022).
Read-outs that look alike come from different tables or passages of the source.

Key:
AHRR = experiment: qRT-PCR of AhR downstream gene AHRR in THP-1 cells; type: cell-based, human; settings: for AHRR expression change in THP-1 AhR KD cells: THP-1 AhR-Knockdown (KD) cells; for AHRR transcription promoted: vs DMSO, increase
[1] = test system: P. aeruginosa pqs QS system (pqsA-gfp); type: cell-based, Pseudomonas aeruginosa
P. aeruginosa PAO1 = type: cell-based, Pseudomonas aeruginosa
CYP1B1 = experiment: qRT-PCR of AhR downstream gene CYP1B1 in THP-1 cells; settings: for CYP1B1 expression change in THP-1 AhR KD cells: THP-1 AhR-Knockdown (KD) cells
[2] = biological target: T1, human recombinant AhR protein (Homo sapiens, UniProt P35869); experiment: Microscale thermophoresis (MST) binding to AhR protein
T1 sequence (P35869 128-399): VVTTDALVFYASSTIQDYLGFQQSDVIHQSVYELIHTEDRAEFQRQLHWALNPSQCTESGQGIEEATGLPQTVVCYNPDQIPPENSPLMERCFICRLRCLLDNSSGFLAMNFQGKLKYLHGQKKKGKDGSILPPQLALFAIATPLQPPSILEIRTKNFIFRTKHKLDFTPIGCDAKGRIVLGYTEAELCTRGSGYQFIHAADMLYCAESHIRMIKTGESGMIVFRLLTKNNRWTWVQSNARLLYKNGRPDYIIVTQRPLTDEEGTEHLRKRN

[3] = test system: P. aeruginosa pqs QS system (pqsA-gfp); type: cell-based, Pseudomonas aeruginosa; remark: listed apart in the source
[4] = test system: P. aeruginosa PAO1 pyocyanin production; experiment: Pyocyanin quantification assay; type: cell-based, Pseudomonas aeruginosa
[5] = test system: P. aeruginosa PAO1 biofilm formation; experiment: Biofilm formation assay (crystal violet staining); type: cell-based, Pseudomonas aeruginosa
[6] = test system: P. aeruginosa rhamnolipid productions; type: cell-based, Pseudomonas aeruginosa; settings: Supplementary Figure 1
[7] = biological target: PqsR binding to the pqsA promoter (Pseudomonas aeruginosa, UniProt Q9I4X0); experiment: Electrophoretic mobility shift assay (EMSA) with biotinylated pqsA promoter and cell lysates; type: biochemical; settings: PAO1 WT cell lysates
[8] = test system: P. aeruginosa PAO1 proteome; type: cell-based, Pseudomonas aeruginosa; settings: Bac_Pht vs Bac
P.aeruginosa = test system: P.aeruginosa; set-up: method as in Shinde and Wadekar, 2018; settings: due to metal ion chelating capacity; ref Shinde and Wadekar, 2018; cited from earlier work
[9] = 10 μM, THP-1 human monocytes, 24 h, vs DMSO alone, repression
[10] = 10 μM, THP-1 human monocytes, 24 h

Sequence of PqsR binding to the pqsA promoter (Q9I4X0 whole entry): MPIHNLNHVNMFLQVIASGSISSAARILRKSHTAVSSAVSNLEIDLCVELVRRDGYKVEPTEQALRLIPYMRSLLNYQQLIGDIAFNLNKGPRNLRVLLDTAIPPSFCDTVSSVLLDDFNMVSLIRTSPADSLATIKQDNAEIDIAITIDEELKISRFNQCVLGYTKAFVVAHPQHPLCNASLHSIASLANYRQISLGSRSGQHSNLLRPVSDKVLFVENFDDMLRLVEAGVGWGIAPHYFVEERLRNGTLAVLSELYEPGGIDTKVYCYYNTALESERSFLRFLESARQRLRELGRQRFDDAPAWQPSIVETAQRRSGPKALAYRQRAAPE

## CCCCCCCc1[nH]c2ccccc2c(=O)c1O [PQS, 2-heptyl-3-hydroxy-4 (1H)-quinolone]
AHRR; [9]
  AHRR transcription repressed: 2.5 fold
AHRR
  AHRR expression change in THP-1 AhR KD cells: no significant expression changes
[1]
  induction of pqsA-gfp expression: induced the pqsA-gfp expression in a dose-dependent manner
P. aeruginosa PAO1
  effect on growth of P. aeruginosa: could not affect the growth
CYP1B1; [9]
  CYP1B1 transcription repressed: 2.3 fold
CYP1B1
  CYP1B1 expression change in THP-1 AhR KD cells: no significant expression changes
[2]
  Kd: 3750 nM

## CC1=C(O)C(=O)c2ccccc2C1=O [Pht, 2-hydroxy-3-methyl-1,4-naphthoquinone]
AHRR; [10]
  AHRR transcription promoted: 1.9 fold
[3]
  inhibition of pqsA-gfp expression: inhibit pqsA-gfp expression in a dose-dependent manner
[3]; PAO1 PpqsA-gfp strain
  optimal concentration for inhibition of pqsA-gfp expression: 750 nM
[1]
  induction of pqsA-gfp expression: not
P. aeruginosa PAO1
  effect on growth of P. aeruginosa: could not affect the growth
[4]
  pyocyanin production: suppressed by Pht to a level comparable to that of PAO1 ΔlasIΔrhlI strain and the ΔpqsC strain
[5]
  biofilm formation: suppressed by Pht to a level comparable to that of the PAO1 ΔlasIΔrhlI and the ΔpqsC strains
[6]
  rhamnolipid production: did not inhibit
[7]
  effect on binding of PqsR (PAO1 cell lysates) to Bio-pqsA promoter: attenuated the interaction between PAO1 cell lysates and Bio-pqsA
[8]; PA1768, Zn_protease domain-containing protein, pValue 0.168581, Sig 0
  FC(group2_group1): 0.5758
[8]; PA4677, Dipeptidase, pValue 0.361511, Sig 0
  FC(group2_group1): 0.5653
[8]; PA5194, acidPPc domain-containing protein, pValue 0.333715, Sig 0
  FC(group2_group1): 0.5551
[8]; PA5195, Heat shock protein 15, pValue 0.131054, Sig 0
  FC(group2_group1): 0.3354
[8]; PA5437, Probable transcriptional regulator, pValue 0.358265, Sig 0
  FC(group2_group1): 0.4217
P.aeruginosa
  anti-P.aeruginosa activity: moderate
CYP1B1; 10 μM, THP-1 human monocytes, 24 h, vs DMSO, increase
  CYP1B1 transcription promoted: 2.2 fold
[2]
  Kd: 474 nM

## CC1=C(C/C=C(\C)CCC[C@H](C)CCC[C@H](C)CCCC(C)C)C(=O)c2ccccc2C1=O [Vitamin K1, Phylloquinone]
AHRR; [10]
  AHRR transcription promoted: 1.6 fold
AHRR
  AHRR expression change in THP-1 AhR KD cells: no change
[3]
  inhibition of pqsA-gfp expression: inhibit pqsA-gfp expression dose-dependently
P. aeruginosa PAO1
  effect on growth of P. aeruginosa: without affecting growth
CYP1B1
  CYP1B1 expression change in THP-1 AhR KD cells: no change
[2]
  Kd: 1990 nM

## CC(C)=CCC/C(C)=C/CC/C(C)=C/CC/C(C)=C/CC1=C(C)C(=O)c2ccccc2C1=O [Vitamin K2, Menaquinones]
[3]
  inhibition of pqsA-gfp expression: inhibit pqsA-gfp expression dose-dependently
P. aeruginosa PAO1
  effect on growth of P. aeruginosa: without affecting growth
[2]
  Kd: 586 nM

## CC1=CC(=O)c2ccccc2C1=O [Vitamin K3, Menadione]
[3]
  inhibition of pqsA-gfp expression: inhibit pqsA-gfp expression dose-dependently
P. aeruginosa PAO1
  effect on growth of P. aeruginosa: without affecting growth
[2]
  Kd: 2170 nM
